# Columns and labels:
# [1] = target: Sigma non-opioid intracellular receptor 1 (Cavia porcellus, UniProt Q60492); experiment: Displacement of [3H]-(+)-pentazocine from sigma-1 receptor in guinea pig brain cortex after 120 mins by scintillation counting analysis; format: tissue-based, Cerebral cortex
# [2] = Selectivity ratio of Ki for rat liver membrane sigma-2 receptor to Ki for guinea pig brain cortex sigma-1 receptor
# [3] = Displacement of [3H]-di-o-tolylguanidine from sigma-2 receptor in rat liver membranes after 120 mins by scintillation counting analysis; format: cell membranes, Membrane
# [4] = target: Sigma non-opioid intracellular receptor 1 (Homo sapiens, UniProt Q99720); experiment: Binding affinity to sigma-1 receptor (unknown origin)
# Sequence of Sigma non-opioid intracellular receptor 1 (Homo sapiens, UniProt Q99720) (Q99720 whole entry): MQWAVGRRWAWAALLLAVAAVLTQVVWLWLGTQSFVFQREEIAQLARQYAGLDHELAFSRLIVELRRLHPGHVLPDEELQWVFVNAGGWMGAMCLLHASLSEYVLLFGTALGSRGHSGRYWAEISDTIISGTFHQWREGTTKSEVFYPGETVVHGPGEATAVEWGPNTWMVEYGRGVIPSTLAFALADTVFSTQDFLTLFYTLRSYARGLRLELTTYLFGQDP
# Sequence of Sigma non-opioid intracellular receptor 1 (Cavia porcellus, UniProt Q60492) (Q60492 whole entry): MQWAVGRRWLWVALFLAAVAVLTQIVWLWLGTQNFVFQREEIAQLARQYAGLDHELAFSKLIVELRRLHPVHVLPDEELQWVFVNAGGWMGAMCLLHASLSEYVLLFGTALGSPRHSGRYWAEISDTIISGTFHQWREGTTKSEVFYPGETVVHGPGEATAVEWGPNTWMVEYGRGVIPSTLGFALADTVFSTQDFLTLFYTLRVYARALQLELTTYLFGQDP
Compound,Ki [1],Ratio Ki [2],Ki [3],Ki [4]
CCCCN1CCC2(CCCc3sccc32)CC1,0.0063 µM,8,0.048 µM,
CN(C)CCC1OCCc2c1cnn2-c1ccccc1 (stereo not given),,,,0.024 µM
c1ccc(CN2CCC3(CCCc4sccc43)C2)cc1 (stereo not given),0.029 µM,4,0.13 µM,
c1ccc(CCCN2CCC3(CCCc4sccc43)CC2)cc1,0.046 µM,4,0.186 µM,
c1ccc(CCN2CCC3(CCCc4sccc43)CC2)cc1,0.277 µM,0.4,0.105 µM,
c1cc2c(s1)CCCC21CCN(CC2CCCCC2)CC1,0.0043 µM,5,0.023 µM,
c1ccc(CN2CCC3(CCCc4sccc43)CC2)cc1,0.0105 µM,16,0.172 µM,
c1ccc(N2CCN(CCC3OCCc4c3cnn4-c3ccccc3)CC2)cc1 (stereo not given),,,,0.0029 µM

# Reference: ChEMBL document CHEMBL3217589, “Spiro[[1]benzothiophen-4,4-piperidines] carba analogs of potent 1 ligands” (Medchemcomm, 2013)
